Here are results for four compounds from paper PMC5767129 (European journal of pharmacology, 2017).

Each structure is given as a SMILES string.

Assay [1] concerns the target T1, human P2X7 receptor (Homo sapiens, UniProt Q99572).
T1 sequence (Q99572 1-595): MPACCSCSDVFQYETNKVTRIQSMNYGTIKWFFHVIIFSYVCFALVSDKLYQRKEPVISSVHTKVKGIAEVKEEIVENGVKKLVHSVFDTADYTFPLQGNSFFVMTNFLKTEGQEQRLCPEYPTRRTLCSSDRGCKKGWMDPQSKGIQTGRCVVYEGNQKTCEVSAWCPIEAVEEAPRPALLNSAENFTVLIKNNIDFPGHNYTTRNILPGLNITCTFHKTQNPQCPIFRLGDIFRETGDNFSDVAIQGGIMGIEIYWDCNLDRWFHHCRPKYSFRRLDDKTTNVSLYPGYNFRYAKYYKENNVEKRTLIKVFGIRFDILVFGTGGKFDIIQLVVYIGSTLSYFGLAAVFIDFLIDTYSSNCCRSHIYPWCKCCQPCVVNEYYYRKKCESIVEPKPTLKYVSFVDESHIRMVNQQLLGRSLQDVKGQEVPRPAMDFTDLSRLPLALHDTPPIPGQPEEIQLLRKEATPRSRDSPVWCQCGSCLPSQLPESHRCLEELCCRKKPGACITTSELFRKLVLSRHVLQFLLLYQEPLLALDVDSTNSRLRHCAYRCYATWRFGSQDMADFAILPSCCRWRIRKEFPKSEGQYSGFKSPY
Briefly: Radioligand saturation binding assay with [^123I]TZ6019.

In another assay the target is T2, P2X7 receptor (Mus musculus, UniProt Q9Z1M0).
T2 sequence (Q9Z1M0 1-595): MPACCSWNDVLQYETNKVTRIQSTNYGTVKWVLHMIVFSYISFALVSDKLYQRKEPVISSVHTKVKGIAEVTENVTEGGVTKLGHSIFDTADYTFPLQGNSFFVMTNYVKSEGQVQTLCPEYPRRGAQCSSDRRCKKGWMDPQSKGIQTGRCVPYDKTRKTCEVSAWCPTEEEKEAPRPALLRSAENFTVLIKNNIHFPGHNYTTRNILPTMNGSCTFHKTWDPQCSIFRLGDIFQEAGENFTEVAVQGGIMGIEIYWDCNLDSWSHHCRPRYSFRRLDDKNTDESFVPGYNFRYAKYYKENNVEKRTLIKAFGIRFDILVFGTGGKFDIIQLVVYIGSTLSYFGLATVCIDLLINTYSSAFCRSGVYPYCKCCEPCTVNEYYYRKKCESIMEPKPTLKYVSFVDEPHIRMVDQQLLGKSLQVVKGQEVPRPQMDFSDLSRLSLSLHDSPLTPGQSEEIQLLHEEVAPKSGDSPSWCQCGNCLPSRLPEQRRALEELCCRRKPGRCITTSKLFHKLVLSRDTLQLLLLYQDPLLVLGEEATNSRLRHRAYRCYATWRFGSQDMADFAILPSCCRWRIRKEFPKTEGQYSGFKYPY
Nature of the assay: In vitro autoradiography of P301S and wild type mouse brain slices. Format: binding. To be noted: for P2X7 receptor expression quantified by autoradiography: mean ± S.D., n = 3.

Assay [2] addresses T1, human P2X7 receptor. Briefly: Ethidium bromide uptake fluorescence assay. Format: cell-based.
Assay [3] addresses T1, human P2X7 receptor. Nature of the assay: Radioligand competition binding assay using [^3H]A804598.
The target in assay [4] is T1, human P2X7 receptor. To be noted: carbon-11 labeled radioligand; ref Gao et al., 2015; Ory et al., 2016; cited from earlier work.
For a further assay, the system named is rodents P2X7 receptor. To be noted: carbon-11 labeled radioligand; ref Gao et al., 2015; Ory et al., 2016; cited from earlier work.
For assay [5], the target named is T1, human P2X7 receptor. Nature of the assay: Radioligand competition binding assay using [^123I]TZ6019. In general terms: In a radioligand displacement assay an active substance lowers the binding of a labelled ligand.

One may read the IC50 as the concentration at which inhibition is half-maximal. A lower IC50 goes with greater potency.

Take `O=C(NCc1cccc(C(F)(F)F)c1Cl)[C@@H]1CCC(=O)N1C/C=C/[123I]` [[^123I]TZ6019]: the “specific binding as fraction of total binding” value at human P2X7 receptor [1] (saturation binding, nonspecific defined with 100 µM GSK1482160) is “approximately 40%”. For the same compound, at P2X7 receptor (Cortex), the “fold higher autoradiography binding in P301S than wild type mice” value came out at 2.4 fold. For the same compound, the “P2X7 receptor expression quantified by autoradiography” value on P2X7 receptor (Cortex, P301S mice) came out at 330.53 ± 91.08 PSL/mm^2; on P2X7 receptor (Cortex, Wild type mice), 135.23 ± 32.55 PSL/mm^2; at P2X7 receptor (Hippocampus, P301S mice, 9-month-old), 255.05 ± 10.90 PSL/mm^2; on P2X7 receptor (Hippocampus, Wild type mice, 9-month-old), 154.18 ± 16.14 PSL/mm^2; at P2X7 receptor (Thalamus, P301S mice), 337.98 ± 93.45 PSL/mm^2; on P2X7 receptor (Thalamus, Wild type mice) it was 187.41 ± 61.02 PSL/mm^2. In addition, the “P2X7 receptor expression quantified by autoradiography” value at P2X7 receptor (Total brain, P301S mice) is given as 260.86 ± 48.93 PSL/mm^2; at P2X7 receptor (Total brain, Wild type mice), 193.05 ± 39.92 PSL/mm^2. The “increase of binding in brain of P301S mice compared to wild type controls” value at P2X7 receptor (brain, n = 3, p = 0.04) was 35%.

With `CN1C(=O)CC[C@H]1C(=O)NCc1cccc(C(F)(F)F)c1Cl` [GSK1482160, reference compound], the IC50 at human P2X7 receptor [2] worked out at 2.1 ± 0.3 nM; on human P2X7 receptor [3] it was 8.65 ± 1 nM; on human P2X7 receptor [5], 4.3 ± 0.9 nM. Besides, at human P2X7 receptor [4], the “binding to human P2X7 receptor” value is “tight binding”. Further, the “binding to rodents P2X7 receptor” value in the assay on rodents P2X7 receptor is recorded as “weak binding”.

`O=C(NCc1cccc(C(F)(F)F)c1Cl)[C@@H]1CCC(=O)N1C/C=C/I` [[^123I]TZ6019]: on human P2X7 receptor [1] (read-out: Kd (saturation binding), HEK-293-hP2X7R cells, one-site fit, n = 3), the Kd is 19.3 ± 2.8 nM.

For the compound `O=C(NCc1cccc(C(F)(F)F)c1Cl)[C@@H]1CCC(=O)N1C/C=C/I` [TZ6019, (S,E)-N-(2-chloro-3-(trifluoromethyl)benzyl)-1-(3-iodoallyl)-5-oxopyrrolidine-2-carboxamide], on human P2X7 receptor [2] (ratio of ethidium bromide assay IC50 values), the “fold lower binding potency than GSK1482160” value is 5 fold. In addition, the IC50 at human P2X7 receptor [3] worked out at 12.9 ± 2 nM; on human P2X7 receptor [5], 9.49 ± 1.4 nM.
